Measurements: patent publication US8927700B2, “Catalytic domains from lysyl oxidase and LOXL2” (Gilead Biologics, Inc., priority 2009, dated 2015)

Biological target: T1, catalytic domain of human LOXL2 (Homo sapiens, UniProt Q9Y4K0)
T1 construct: made in house; host or cells: 293F cells (HEK293 subclone), transient transfection; purified from culture supernatant on Ni-Sepharose
Assay: Amplex Red coupled peroxide assay of lysyl oxidase enzymatic activity (deamination of 1,5-diaminopentane)
Type: biochemical
Conditions: 1,5-diaminopentane substrate, 37° C., FIG. 5
Procedure: A polypeptide containing the catalytic domain of human LOXL2 was produced as described in Example 12 above. Enzymatic activity was assessed using a biochemical assay that couples the production of peroxide (liberated by LOXL2 after deamination of 1,5-diaminopentane) to the HRP-catalyzed conversion of Amplex® red to a fluorescent product (resorufin). Palamakumbura et al. (2002) Anal. Biochem. 300:245-251. Reaction plates were obtained from Corning. Amplex® Red reagent was from Invitrogen (Carlsbad, Calif.). Horseradish peroxidase (HRP), 1,5-diaminopentane, and antifoam were from Sigma (St. Louis, Mo.). All other reagents were of the highest quality available.
Enzyme mixture was assembled by adding 10 uL of pooled peak fractions (see Example 12) to 40 uL assay solution (62.5 mM sodium borate pH 8.0, 5 units/mL HRP, 10 ppm antifoam). Substrate solution contained 50 mM sodium borate, 100 uM Amplex® red reagent, 20 mM 1,5-diaminopentane, 10 ppm antifoam. The reaction was started by mixing 50 ul of enzyme mixture with 50 ul of substrate solution. […] Reaction mixtures were incubated, at 37° C., in a Molecular Devices M5 plate reader configured to measure fluorescence (ex=544 nm, em=590 nm) in kinetics mode for 1 hour. Data were recorded as the slope of the fluorescence response to time.

T1 sequence (Q9Y4K0 with tags, fused parts or gaps): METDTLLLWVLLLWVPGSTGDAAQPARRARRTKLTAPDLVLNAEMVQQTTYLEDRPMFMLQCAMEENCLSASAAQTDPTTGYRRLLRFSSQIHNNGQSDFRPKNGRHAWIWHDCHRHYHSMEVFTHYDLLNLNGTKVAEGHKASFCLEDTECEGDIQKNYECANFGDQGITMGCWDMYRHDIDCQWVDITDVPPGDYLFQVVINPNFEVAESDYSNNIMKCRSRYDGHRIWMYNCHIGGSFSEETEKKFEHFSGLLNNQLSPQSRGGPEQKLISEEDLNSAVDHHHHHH

Row | Compound | inhibition of the enzymatic activity of the human LOXL2-derived polypeptide (time course of resorufin production, RFU) (2 mM βAPN in reaction, kinetics mode for 1 hour) | enzymatic activity (time course of resorufin production, relative fluorescent units) (pooled peak fractions of purified polypeptide, 1 hour)
1 | N#CCCN [βAPN, beta-aminoproprionitrile] | inhibited | 
2 | human LOXL2-derived polypeptide: polypeptide containing the catalytic domain of human LOXL2 with myc epitope tag and His6 purification tag, produced in 293F cells |  | measurable enzymatic activity
